Measurements from PubChem BioAssay (NCI).
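96-well plates; 48 h exposure; 5 concentrations. Endpoints by linear interpolation between flanking doses. Not reached: highest tested concentration assigned. Abbreviation: GI50, concentration required for 50% inhibition of growth. TGI denotes the concentration required for complete inhibition of growth.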

What was measured:
Test in all cases: DTP human tumour cell line panel, 48 h
[1] = system: 786-0 renal
[2] = system: A498 renal
[3] = system: A549 NSCLC
[4] = system: ACHN renal
[5] = system: BT-549 breast
[6] = system: CAKI-1 renal
[7] = system: CCRF-CEM leukemia
[8] = system: COLO 205 colon
[9] = system: DU-145 prostate
[10] = system: EKVX NSCLC
[11] = system: HCC-2998 colon
[12] = system: HCT-116 colon
[13] = system: HCT-15 colon
[14] = system: HL-60(TB) leukemia
[15] = system: HOP-62 NSCLC
[16] = system: HOP-92 NSCLC
[17] = system: HS 578T breast
[18] = system: HT29 colon
[19] = system: IGROV1 ovarian
[20] = system: K-562 leukemia
[21] = system: KM12 colon
[22] = system: LOX IMVI melanoma
[23] = system: M14 melanoma
[24] = system: MALME-3M melanoma
[25] = system: MCF7 breast
[26] = system: MDA-MB-231 breast
[27] = system: MDA-MB-435
[28] = system: MOLT-4 leukemia
[29] = system: NCI-H226 lung
[30] = system: NCI-H23 lung
[31] = system: NCI-H460 lung
[32] = system: NCI-H522 lung
[33] = system: NCI/ADR-RES ovarian
[34] = system: OVCAR-3 ovarian
[35] = system: OVCAR-4 ovarian
[36] = system: OVCAR-5 ovarian
[37] = system: OVCAR-8 ovarian
[38] = system: PC-3 prostate
[39] = system: RPMI-8226 leukemia
[40] = system: SF-268 CNS
[41] = system: SF-295 CNS
[42] = system: SF-539 CNS
[43] = system: SK-MEL-2 melanoma
[44] = system: SK-MEL-28 melanoma
[45] = system: SK-MEL-5 melanoma
[46] = system: SK-OV-3 ovarian
[47] = system: SN12C renal
[48] = system: SNB-19 CNS
[49] = system: SNB-75 CNS
[50] = system: SR leukemia
[51] = system: SW-620 colon
[52] = system: T-47D breast
[53] = system: TK-10 renal
[54] = system: U251 CNS
[55] = system: UACC-257 melanoma
[56] = system: UACC-62 melanoma
[57] = system: UO-31 renal

Q: How did the GI50 [1] turn out when `O=C(CCCCCCNC(=O)C(O)(O)C(F)(F)F)Nc1ncc(-c2ccc(Br)cc2)s1` was run?
A: Its GI50 is 1 µM.

Q: What about the TGI [1] of the same compound?
A: Its TGI is over 31.8 µM.

Q: And the GI50 [2]?
A: The GI50 was 0.13 µM.

Q: And the TGI [2]?
A: The TGI was 1.65 µM.

Q: And the GI50 [3]?
A: Its GI50 is 1.6 µM.

Q: What about the TGI [3] of the same compound?
A: The TGI was over 31.8 µM.

Q: And the GI50 [4]?
A: Its GI50 is 0.908 µM.

Q: What about the TGI [4] of the same compound?
A: The TGI was 4.83 µM.

Q: And the GI50 [5]?
A: Its GI50 is 0.851 µM.

Q: What about the TGI [5] of the same compound?
A: Its TGI is over 31.8 µM.

Q: And the GI50 [6]?
A: The GI50 was 1.22 µM.

Q: And the TGI [6]?
A: Its TGI is 16.8 µM.

Q: What about the GI50 [7] of the same compound?
A: Its GI50 is 1.19 µM.

Q: What about the TGI [7] of the same compound?
A: The TGI was over 31.8 µM.

Q: What about the GI50 [8] of the same compound?
A: The GI50 was 0.826 µM.

Q: What about the TGI [8] of the same compound?
A: The TGI was 2.26 µM.

Q: And the GI50 [9]?
A: Its GI50 is 1.11 µM.

Q: What about the TGI [9] of the same compound?
A: Its TGI is 6.41 µM.

Q: What about the GI50 [10] of the same compound?
A: The GI50 was 1.33 µM.

Q: And the TGI [10]?
A: Its TGI is over 31.8 µM.

Q: And the GI50 [11]?
A: The GI50 was 1.36 µM.

Q: And the TGI [11]?
A: The TGI was 4.82 µM.

Q: What about the GI50 [12] of the same compound?
A: Its GI50 is 0.273 µM.

Q: What about the TGI [12] of the same compound?
A: Its TGI is 6.73 µM.

Q: And the GI50 [13]?
A: Its GI50 is 1.43 µM.

Q: And the TGI [13]?
A: The TGI was 6.28 µM.

Q: What about the GI50 [14] of the same compound?
A: Its GI50 is 1.62 µM.

Q: What about the TGI [14] of the same compound?
A: The TGI was over 31.8 µM.

Q: And the GI50 [15]?
A: The GI50 was 1.23 µM.

Q: What about the TGI [15] of the same compound?
A: The TGI was 9.1 µM.

Q: And the GI50 [16]?
A: The GI50 was 0.199 µM.

Q: What about the TGI [16] of the same compound?
A: The TGI was 1.51 µM.

Q: What about the GI50 [17] of the same compound?
A: The GI50 was 1.04 µM.

Q: And the TGI [17]?
A: Its TGI is over 31.8 µM.

Q: What about the GI50 [18] of the same compound?
A: Its GI50 is 0.735 µM.

Q: What about the TGI [18] of the same compound?
A: The TGI was over 31.8 µM.

Q: And the GI50 [19]?
A: The GI50 was 0.846 µM.

Q: And the TGI [19]?
A: The TGI was 4.51 µM.

Q: What about the GI50 [20] of the same compound?
A: The GI50 was 0.442 µM.

Q: What about the TGI [20] of the same compound?
A: Its TGI is over 31.8 µM.

Q: What about the GI50 [21] of the same compound?
A: Its GI50 is 1.25 µM.

Q: What about the TGI [21] of the same compound?
A: Its TGI is 6.66 µM.

Q: What about the GI50 [22] of the same compound?
A: The GI50 was 0.564 µM.

Q: And the TGI [22]?
A: The TGI was 1.36 µM.

Q: And the GI50 [23]?
A: Its GI50 is 1.47 µM.

Q: And the TGI [23]?
A: The TGI was over 31.8 µM.

Q: What about the GI50 [24] of the same compound?
A: Its GI50 is 0.913 µM.

Q: What about the TGI [24] of the same compound?
A: The TGI was over 31.8 µM.

Q: And the GI50 [25]?
A: Its GI50 is 1.3 µM.

Q: What about the TGI [25] of the same compound?
A: Its TGI is over 31.8 µM.

Q: And the GI50 [26]?
A: Its GI50 is 0.607 µM.

Q: And the TGI [26]?
A: The TGI was 2 µM.

Q: What about the GI50 [27] of the same compound?
A: The GI50 was 1.04 µM.

Q: What about the TGI [27] of the same compound?
A: The TGI was over 31.8 µM.

Q: And the GI50 [28]?
A: The GI50 was 0.831 µM.

Q: And the TGI [28]?
A: The TGI was over 31.8 µM.

Q: And the GI50 [29]?
A: The GI50 was 2.4 µM.

Q: And the TGI [29]?
A: The TGI was 14.4 µM.

Q: And the GI50 [30]?
A: The GI50 was 1.21 µM.

Q: What about the TGI [30] of the same compound?
A: The TGI was 6.56 µM.

Q: What about the GI50 [31] of the same compound?
A: Its GI50 is 0.89 µM.

Q: What about the TGI [31] of the same compound?
A: Its TGI is 8.2 µM.

Q: What about the GI50 [32] of the same compound?
A: The GI50 was 1.45 µM.

Q: And the TGI [32]?
A: The TGI was 13.8 µM.

Q: And the GI50 [33]?
A: The GI50 was 1.35 µM.

Q: What about the TGI [33] of the same compound?
A: Its TGI is 7.11 µM.

Q: What about the GI50 [34] of the same compound?
A: Its GI50 is 0.781 µM.

Q: What about the TGI [34] of the same compound?
A: Its TGI is 2.91 µM.

Q: And the GI50 [35]?
A: The GI50 was 2.48 µM.

Q: What about the TGI [35] of the same compound?
A: Its TGI is over 31.8 µM.

Q: And the GI50 [36]?
A: Its GI50 is 0.686 µM.

Q: And the TGI [36]?
A: The TGI was 5.57 µM.

Q: And the GI50 [37]?
A: Its GI50 is 1.37 µM.

Q: And the TGI [37]?
A: Its TGI is over 31.8 µM.

Q: What about the GI50 [38] of the same compound?
A: Its GI50 is 0.957 µM.

Q: What about the TGI [38] of the same compound?
A: The TGI was over 31.8 µM.

Q: What about the GI50 [39] of the same compound?
A: The GI50 was 0.452 µM.

Q: What about the TGI [39] of the same compound?
A: The TGI was over 31.8 µM.

Q: And the GI50 [40]?
A: Its GI50 is 1.29 µM.

Q: What about the TGI [40] of the same compound?
A: The TGI was 12.2 µM.

Q: What about the GI50 [41] of the same compound?
A: Its GI50 is 0.628 µM.

Q: What about the TGI [41] of the same compound?
A: The TGI was 1.51 µM.

Q: What about the GI50 [42] of the same compound?
A: The GI50 was 1.23 µM.

Q: And the TGI [42]?
A: Its TGI is over 31.8 µM.

Q: And the GI50 [43]?
A: The GI50 was 1.36 µM.

Q: What about the TGI [43] of the same compound?
A: The TGI was 18.8 µM.

Q: And the GI50 [44]?
A: The GI50 was 1.12 µM.

Q: And the TGI [44]?
A: The TGI was over 31.8 µM.

Q: And the GI50 [45]?
A: Its GI50 is 0.972 µM.

Q: And the TGI [45]?
A: Its TGI is 3.43 µM.

Q: And the GI50 [46]?
A: Its GI50 is 1.02 µM.

Q: What about the TGI [46] of the same compound?
A: Its TGI is 3.1 µM.

Q: What about the GI50 [47] of the same compound?
A: Its GI50 is 1.25 µM.

Q: And the TGI [47]?
A: The TGI was 18.7 µM.

Q: What about the GI50 [48] of the same compound?
A: Its GI50 is 1.32 µM.

Q: And the TGI [48]?
A: Its TGI is 6.61 µM.

Q: And the GI50 [49]?
A: The GI50 was 1.84 µM.

Q: What about the TGI [49] of the same compound?
A: Its TGI is over 31.8 µM.

Q: And the GI50 [50]?
A: The GI50 was 0.478 µM.

Q: What about the TGI [50] of the same compound?
A: The TGI was over 31.8 µM.

Q: And the GI50 [51]?
A: Its GI50 is 0.84 µM.

Q: And the TGI [51]?
A: Its TGI is 3.1 µM.

Q: And the GI50 [52]?
A: Its GI50 is 0.808 µM.

Q: What about the TGI [52] of the same compound?
A: Its TGI is 25.8 µM.

Q: And the GI50 [53]?
A: Its GI50 is 0.456 µM.

Q: And the TGI [53]?
A: Its TGI is over 31.8 µM.

Q: And the GI50 [54]?
A: The GI50 was 0.83 µM.

Q: What about the TGI [54] of the same compound?
A: Its TGI is over 31.8 µM.

Q: And the GI50 [55]?
A: Its GI50 is 1.92 µM.

Q: And the TGI [55]?
A: Its TGI is over 31.8 µM.

Q: What about the GI50 [56] of the same compound?
A: Its GI50 is 0.675 µM.

Q: And the TGI [56]?
A: The TGI was 2.38 µM.

Q: What about the GI50 [57] of the same compound?
A: Its GI50 is 0.745 µM.

Q: What about the TGI [57] of the same compound?
A: Its TGI is 4.41 µM.
